Measured values: PMC8234864, “Early Effects of the Soluble Amyloid β25-35 Peptide in Rat Cortical Neurons: Modulation of Signal Transduction Mediated by Adenosine and Group I Metabotropic Glutamate Receptors” (International Journal of Molecular Sciences, 2021)
Where no end group is shown, it is not given here.

Legend:
A2AR = biological target: T1, A2AR (Rattus norvegicus, UniProt P30543); experiment: A2AR-mediated AC stimulation (CGS 21680); format: cell-based; details: 25 µM, 24 h; 1 µM CGS 21680
T1 construct: endogenous in cells; host or cells: rat primary cortical neurons (intact)
Description: AC activity was determined as previously reported by Murphy with minor modifications. Briefly, control or treated cells were pre-incubated in serum-free DMEM buffered with 20 mM HEPES, pH 7.4, supplemented with 100 µM Ro 20-1724 and 2 U/mL ADA, for 10 min at 37 °C. AC activity was stimulated using specific ligands for 15 min at 37 °C in a final volume of 250 µL. The reaction was stopped by adding 500 µL 0.1 M HCl in absolute ethanol. Once centrifuged at 12,000× g for 10 min, supernatants were evaporated in speed-vac and resuspended in 150 µL assay buffer (50 mM Tris-HCl, 4 mM EDTA). Fifty microliters of the sample were used to determine cAMP accumulation using protein kinase A as a cAMP binding protein and [^3H]cAMP as radioligand. A cAMP standard curve (0–16 pmol) was prepared in the same buffer. Incubation was stopped by rapid filtration through Whatman GF/B filters.

PLCβ1 = PLCβ1 immunocytochemistry in permeabilized neurons; format: cell-based, rat; details: 25 µM, 24 h
Description: For PLCβ1 immunostaining, the protocol described above was followed with the introduction of modified steps. Before the nonspecific staining blockade with 3% normal goat serum, cells were pre-treated with Triton 0.25% in LB for 10 min to induce membrane permeabilization. Cells were incubated overnight in blocking buffer with mouse anti-PLCβ1 monoclonal antibody (1:500) from Millipore (Bedford, MA, USA). The following day, after three LB washes (10 min each), cortical neurons were exposed to Cy3-conjugated goat anti-mouse IgG (1:600). In all immunochemical procedures, internal controls were carried out where primary antibodies were not added to the blocking buffer.
To evaluate the degree of fluorescence intensity in cortical neurons, fluorescence was measured to estimate the protein expression in the different experimental conditions analyzed. Images (448.6 µm × 335.08 µm) obtained with a digital camera (Leica DFC350FX R2), attached to a Leica DMI6000B (Leica Microsystems, Wetzlar, Germany) fluorescent microscope, were used for quantification (20x HCX PL FLUOTAR 0.4 dry objective). […] Fluorescence intensity was estimated by averaging mean grey values. […] Data were normalized to the total number of cells in the analyzed fields. The mean fluorescence background, calculated in the unstained regions between neurons, was subtracted from the fluorescence intensity of each data point. […]

A1R = biological target: T2, A1R (Rattus norvegicus, UniProt P25099); experiment: [3H]DPCPX radioligand binding in intact cortical neurons; details: for Total A1R density (Bmax) increase over control value: 25 µM; for A1R Bmax: [3H]DPCPX saturation binding
T2 construct: endogenous in cells; host or cells: rat primary cortical neurons (intact)
T2 sequence (P25099 1-326): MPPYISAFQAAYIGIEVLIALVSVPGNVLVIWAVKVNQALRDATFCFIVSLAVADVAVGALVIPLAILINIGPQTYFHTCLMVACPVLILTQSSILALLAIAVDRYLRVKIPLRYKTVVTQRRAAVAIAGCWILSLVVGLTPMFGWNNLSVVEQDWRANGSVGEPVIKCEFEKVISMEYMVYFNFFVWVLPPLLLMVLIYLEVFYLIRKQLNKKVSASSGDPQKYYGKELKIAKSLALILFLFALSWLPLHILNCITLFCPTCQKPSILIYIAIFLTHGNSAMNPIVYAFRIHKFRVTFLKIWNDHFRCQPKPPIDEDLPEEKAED
Description: Concerning adenosine receptor assessment by radioligand binding, [^3H]DPCPX and [^3H]ZM241385 were employed as selective A1R and A2AR radioligands, as described previously, to determine A1R and A2AR density, respectively. Briefly, primary cortical neurons growth in 24-well plates were washed with serum-free DMEM and pre-incubated with 2 U/mL ADA at 37 °C for 30 min to remove endogenous adenosine. After incubation, the radioligands [^3H]DPCPX (1–20 nM) or [^3H] ZM241385 (1–20 nM) were added in the absence or the presence of CPA in a concentration 10^4 times higher than the radioligand, to obtain non-specific binding to A1R, or 5 mM theophylline, to obtain non-specific binding to A2AR. A specific adenosine uptake inhibitor (1 µM dipyridamole) was added to the reaction mixture to block adenosine receptor ligands’ binding to adenosine transporters. After incubation at 25 °C for 2 h in a final volume of 250 µL, cells were washed with 500 µL of ice-cold buffer and disrupted with 0.2% SDS. Well contents were then transferred to vials and a scintillation liquid mixture was added to measure radioactivity. Two wells from each plate were reserved for protein concentration measurement.

[1] = neurons exposed to 25 µM for 24 h
[2] = neurons exposed to 25 µM for 48 h

T1 sequence (P30543 whole entry): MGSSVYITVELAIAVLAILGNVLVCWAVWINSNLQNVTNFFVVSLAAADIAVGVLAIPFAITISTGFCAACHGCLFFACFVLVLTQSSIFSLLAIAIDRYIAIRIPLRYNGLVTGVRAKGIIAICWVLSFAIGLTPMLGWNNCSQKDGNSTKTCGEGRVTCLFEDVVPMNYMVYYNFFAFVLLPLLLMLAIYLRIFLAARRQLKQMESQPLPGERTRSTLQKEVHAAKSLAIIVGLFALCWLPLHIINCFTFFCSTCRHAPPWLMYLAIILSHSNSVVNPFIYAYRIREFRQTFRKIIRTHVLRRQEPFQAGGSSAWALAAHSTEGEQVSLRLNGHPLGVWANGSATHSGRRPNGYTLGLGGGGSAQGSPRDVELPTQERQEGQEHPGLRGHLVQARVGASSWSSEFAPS

A2AR-mediated stimulation of AC activity (A2AR): did not alter
Total A1R density (Bmax) increase over control value (A1R; 24 h): 265%
Total A1R density (Bmax) increase over control value (A1R; 48 h): 184%
Kd (A1R; [1]): 7.51 ± 2.35 nM
A1R Bmax (A1R; [1]): 545 ± 101 fmol/mg prot
Kd (A1R; [2]): 5.51 ± 1.33 nM
A1R Bmax (A1R; [2]): 423 ± 66 fmol/mg prot
Sequence: GSNKGAIIGLM [Aβ25-35]
total PLCβ1 protein decrease over control value (PLCβ1): 40%
